Experimental findings from patent US8461170B2, “Chemical compounds” (Astrazeneca AB, priority 2010, dated 2013) are described below.

For one test, the target named is T1, human ALK (Homo sapiens, UniProt Q9UM73).
T1 construct: GST (N); purchased Invitrogen, Carlsbad, Calif; (or prepared by AstraZeneca); host or cells: insect cells
In words: ALK kinase mobility shift assay (Caliper LC3000). The class given is biochemical. The following applies: ATP 30 μM (Km) or 5 mM, not specified which. As for the experimental part:
ALK kinase activity was determined by measuring the kinase's ability to phosphorylate a tyrosine residue within a peptide substrate using a mobility shift assay on a Caliper LC3000 reader (Caliper Life Sciences, Hopkinton, Mass.), which measures fluorescence of the phosphorylated and unphosphorylated substrate and calculates a ratiometric value to determine percent turnover.
To measure ALK kinase activity, the ALK enzyme used was N-terminal GST-tagged, recombinant, human ALK, amino acids 1058-1620 (Genbank Accession number NP_004295) expressed in insect cells and activated in-vitro via autophosphorylation. This was either purchased from a commercially available source (Invitrogen, Carlsbad, Calif.) or prepared by AstraZeneca. The kinase was incubated with a FAM labeled SRCtide substrate (5FAM-GEEPLYWSFPAKKK-NH2, AnaSpec, Fremont, Calif.), 30 μM adenosine triphosphate (ATP, at Km concentration) or 5 mM ATP, 50 mM HEPES buffer (pH 7.3), 1 mM DTT, 0.01% Tween 20, 50 μg/ml BSA and 10 mM MgCl2 for 90 minutes at room temperature. After this time, the kinase reaction was stopped by adding quenching buffer containing final concentrations of 36 mM ethylenediaminetetraacetic acid (EDTA), 65 mM HEPES buffer (pH 7.3), 0.2% Coatin Reagent 3 (Caliper Life Sciences, Hopkinton, Mass.), and 0.003% Tween 20. The reaction was performed in 384 well microtitre plates and the reaction products were detected using the Caliper LC3000 Reader in the presence of separation buffer consisting of 100 mM HEPES (pH 7.3), 15.8 mM EDTA, 0.1% Coatin Reagent 3 (Caliper, Mass.), 0.015% Brij-35, 5% DMSO, and 5.6 mM MgCl2. The separation conditions set up on the Caliper LC3000 were −1.7 PSI, −400V upstream voltage, −2000V downstream voltage, 0.2 second sample sip, 45 second post sip, and 150 seconds final delay. The percentage of inhibition of ALK enzyme activity by compounds were measured based on Max signals (DMSO control) and Min signals (EDTA control) in the plates. Data was graphed and IC50s calculated by IDBS ActivityBase program.

In another test the target is ALK (h) (Homo sapiens, UniProt Q9UM73). In words: alternate ALK protocol (33P-ATP filter-binding radiometric assay). The class given is biochemical. The following applies: 250 μM KKKSPGEYVNIEFG substrate, [γ-33P-ATP], 40 minutes at room temperature, read-out: ALK inhibitory activities (IC50s (μM)). The protocol:
Examples 1, 9 and 10 were additionally tested using an alternate ALK protocol as follows: ALK (h) was incubated with 8 mM MOPS pH 7.0, 0.2 mM EDTA, 250 μM KKKSPGEYVNIEFG, 10 mM MgAcetate and [γ-33P-ATP] (specific activity approx. 500 cpm/pmol, concentration as required). The reaction was initiated by the addition of the MgATP mix. After incubation for 40 minutes at room temperature, the reaction was stopped by the addition of 3% phosphoric acid solution. 10 μL of the reaction was spotted onto a P30 filtermat and washed three times for 5 minutes in 75 mM phosphoric acid and once in methanol prior to drying and scintillation counting. When tested in the assay described above, Examples 1, 9 and 10 each had ALK inhibitory activities (IC50s (μM)) of 0.004, 0.019, and 0.006, respectively.

Where [1] appears, read: cumulative geometric means including test re-runs, some obtained since the priority filings, read-out: ALK Enzyme IC50 (μM)**.
The mark [2] stands for this setting: geometric means of multiple test runs, as presented in the priority filings, read-out: ALK Enzyme IC50 (μM)*.

Structures are written as SMILES. Read-outs that look alike come from different tables or passages of the source.

ALK (h), sequence (Q9UM73 19-1620): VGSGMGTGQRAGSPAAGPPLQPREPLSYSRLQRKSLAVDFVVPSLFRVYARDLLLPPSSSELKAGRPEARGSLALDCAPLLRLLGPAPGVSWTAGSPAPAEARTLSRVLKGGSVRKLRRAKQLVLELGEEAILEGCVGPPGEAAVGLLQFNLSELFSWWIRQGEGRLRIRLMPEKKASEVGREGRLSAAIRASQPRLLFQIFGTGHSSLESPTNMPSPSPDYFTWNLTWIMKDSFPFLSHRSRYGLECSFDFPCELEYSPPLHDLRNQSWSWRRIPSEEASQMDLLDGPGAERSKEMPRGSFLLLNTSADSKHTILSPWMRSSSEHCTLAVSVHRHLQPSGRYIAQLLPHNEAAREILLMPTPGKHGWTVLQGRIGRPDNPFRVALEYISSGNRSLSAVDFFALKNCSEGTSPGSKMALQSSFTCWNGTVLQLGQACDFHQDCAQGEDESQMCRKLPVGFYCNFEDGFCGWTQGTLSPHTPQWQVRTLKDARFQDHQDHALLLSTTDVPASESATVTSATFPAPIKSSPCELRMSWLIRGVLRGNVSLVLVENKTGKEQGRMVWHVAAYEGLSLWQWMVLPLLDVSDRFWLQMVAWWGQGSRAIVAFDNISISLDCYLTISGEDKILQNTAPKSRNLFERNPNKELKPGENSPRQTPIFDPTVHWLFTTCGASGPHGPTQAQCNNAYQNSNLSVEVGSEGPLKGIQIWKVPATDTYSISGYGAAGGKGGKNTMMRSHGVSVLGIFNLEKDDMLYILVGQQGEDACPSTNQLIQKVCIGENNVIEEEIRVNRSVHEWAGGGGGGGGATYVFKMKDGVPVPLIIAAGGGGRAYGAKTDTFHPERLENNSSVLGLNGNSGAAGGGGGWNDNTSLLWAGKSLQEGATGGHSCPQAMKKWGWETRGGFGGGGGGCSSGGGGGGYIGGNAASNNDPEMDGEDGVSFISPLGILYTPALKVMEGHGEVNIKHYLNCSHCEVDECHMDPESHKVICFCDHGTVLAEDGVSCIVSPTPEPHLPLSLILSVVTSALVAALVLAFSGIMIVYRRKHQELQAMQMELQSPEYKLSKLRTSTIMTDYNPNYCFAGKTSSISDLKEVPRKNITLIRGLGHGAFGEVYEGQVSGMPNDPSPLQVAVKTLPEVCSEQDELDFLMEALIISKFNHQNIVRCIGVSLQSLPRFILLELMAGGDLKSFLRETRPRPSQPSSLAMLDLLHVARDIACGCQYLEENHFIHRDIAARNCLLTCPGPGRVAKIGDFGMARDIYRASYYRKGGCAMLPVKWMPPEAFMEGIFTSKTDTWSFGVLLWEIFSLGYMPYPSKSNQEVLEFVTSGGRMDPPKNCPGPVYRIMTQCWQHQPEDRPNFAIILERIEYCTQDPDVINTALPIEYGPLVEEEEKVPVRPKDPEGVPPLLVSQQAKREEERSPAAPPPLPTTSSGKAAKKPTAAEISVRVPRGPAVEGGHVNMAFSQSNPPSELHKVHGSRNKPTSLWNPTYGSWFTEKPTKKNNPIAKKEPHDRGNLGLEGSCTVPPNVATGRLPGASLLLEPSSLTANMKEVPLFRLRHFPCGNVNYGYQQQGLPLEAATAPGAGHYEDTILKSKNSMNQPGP
T1 sequence (Q9UM73 1058-1620): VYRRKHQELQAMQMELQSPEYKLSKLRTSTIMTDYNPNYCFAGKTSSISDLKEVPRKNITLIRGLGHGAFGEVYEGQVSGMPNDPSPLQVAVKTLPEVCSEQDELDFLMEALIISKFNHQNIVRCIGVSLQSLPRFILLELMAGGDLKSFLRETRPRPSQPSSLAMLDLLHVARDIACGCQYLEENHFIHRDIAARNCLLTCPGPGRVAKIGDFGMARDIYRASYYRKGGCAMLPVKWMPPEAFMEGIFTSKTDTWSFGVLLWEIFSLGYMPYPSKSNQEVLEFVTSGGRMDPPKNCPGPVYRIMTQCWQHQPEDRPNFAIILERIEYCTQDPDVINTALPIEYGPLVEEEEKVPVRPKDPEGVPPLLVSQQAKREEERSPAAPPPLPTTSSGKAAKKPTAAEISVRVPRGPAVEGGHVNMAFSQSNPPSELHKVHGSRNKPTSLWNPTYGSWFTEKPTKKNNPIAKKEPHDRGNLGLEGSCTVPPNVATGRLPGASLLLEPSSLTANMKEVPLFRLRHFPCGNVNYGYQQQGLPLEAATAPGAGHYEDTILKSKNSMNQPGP

`COc1cc(N2CCC(N3CCN(C)CC3)CC2)ccc1Nc1ncc(C)c(-c2c[nH]c3ccccc23)n1` [Example 9, 4-(1H-Indol-3-yl)-N-(2-methoxy-4-(4-(4-methylpiperazin-1-yl)piperidin-1-yl)phenyl)-5-methylpyrimidin-2-amine]: the IC50 at human ALK (setting [1]) was determined as 0.068 µM; on human ALK (setting [2]), 0.05 µM; at ALK (h) it was 0.019 µM. With `COc1cc(N2CCC(N3CCN(C)CC3)CC2)ccc1Nc1ncc(Cl)c(-c2c[nH]c3ccccc23)n1` [Example 10, 5-Chloro-4-(1H-indol-3-yl)-N-(2-methoxy-4-(4-(4-methylpiperazin-1-yl)piperidin-1-yl)phenyl)pyrimidin-2-amine], the IC50 on human ALK (setting [2]) came to 0.02 µM; on ALK (h), 0.006 µM. As for `COc1cc(N2CCC(N)CC2)ccc1Nc1ncc(Cl)c(-c2c[nH]c3ccccc23)n1` [Example 1, N-(4-(4-Aminopiperidin-1-yl)-2-methoxyphenyl)-5-chloro-4-(1H-indol-3-yl)pyrimidin-2-amine], the IC50 at human ALK (setting [1]) turned out to be 0.021 µM; at human ALK (setting [2]), 0.015 µM; at ALK (h), 0.004 µM.

On to `COc1cc(N2CCC(N3CCN(C)CC3)CC2)c(F)cc1Nc1ncc(C)c(-c2c[nH]c3ccccc23)n1` [Example 38, N-[5-fluoro-2-methoxy-4-[4-(4-methylpiperazin-1-yl)-1-piperidyl]phenyl]-4-(1H-indol-3-yl)-5-methyl-pyrimidin-2-amine], for which the IC50 on human ALK (setting [2]) turned out to be 0.258 µM. Same read-out and setting: as for `COc1cc(N2CCC(N3CCN(C)CC3)CC2)ccc1Nc1ncc(Cl)c(-c2cn(C)c3ccccc23)n1` [Example 34, 5-Chloro-N-(2-methoxy-4-(4-(4-methylpiperazin-1-yl)piperidin-1-yl)phenyl)-4-(1-methyl-1H-indol-3-yl)pyrimidin-2-amine], the figure is 0.148 µM. For `COc1cc(N2CCC(N)C(F)C2)ccc1Nc1ncc(Cl)c(-c2c[nH]c3ccccc23)n1` (single isomer, unassigned) [Example 51, (cis)-N-(4-(4-amino-3-fluoropiperidin-1-yl)-2-methoxyphenyl)-5-chloro-4-(1H-indol-3-yl)pyrimidin-2-amine], the IC50 on human ALK (setting [1]) was 0.031 µM. For the compound `COc1cc(N2CCC(N)CC2)ccc1Nc1ncc(Cl)c(-c2cn(C)c3ccccc23)n1` [Example 35, N-(4-(4-aminopiperidin-1-yl)-2-methoxyphenyl)-5-chloro-4-(1-methyl-1H-indol-3-yl)pyrimidin-2-amine], the IC50 on human ALK (setting [2]) is 0.098 µM.

Consider `COc1cc(N2CCC(N)CC2)ccc1Nc1ncc(C)c(-c2c[nH]c3ccccc23)n1` [Example 5, N-(4-(4-Aminopiperidin-1-yl)-2-methoxyphenyl)-4-(1H-indol-3-yl)-5-methylpyrimidin-2-amine], for which the IC50 on human ALK (setting [2]) is 0.03 µM. As to `COc1cc(N2CCC(N3CCN(S(C)(=O)=O)CC3)CC2)ccc1Nc1ncc(Cl)c(-c2c[nH]c3ccccc23)n1` [Example 21, 5-Chloro-4-(1H-indol-3-yl)-N-(2-methoxy-4-{4-[4-(methylsulfonyl)piperazin-1-yl]piperidin-1-yl}phenyl)pyrimidin-2-amine], the IC50 on human ALK (setting [2]) was found to be 0.235 µM. With `CNC1CCN(c2ccc(Nc3ncc(C)c(-c4c[nH]c5ccccc45)n3)c(OC)c2)CC1` [Example 4, 4-(1H-Indol-3-yl)-N-(2-methoxy-4-(4-(methylamino)piperidin-1-yl)phenyl)-5-methylpyrimidin-2-amine], the IC50 at human ALK (setting [2]) is 0.052 µM.
